Measurements: the supplement of paper PMC10307832

Tests used:
Test in all cases: relative viability (nuclei count vs DMSO), 5 days (fraction); higher = more cells survive
EKVX = test system: EKVX
Summary of the method: (§1)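 Values are medians from duplicate plates. Each reflects relative viability, defined as the nuclei count of treated wells over that of vehicle wells. Lung cancer cell lines in 1536-well plates were pin-tool dosed one day after seeding with one drug alone or with a fixed anchor-drug dose plus five library-drug doses (not always all listed) in √10 steps, then fixed, stained and imaged at 4× after 5 days.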

NCI-H1648 = test system: NCI-H1648
Summary of the method: as §1

NCI-H1395 = test system: NCI-H1395
Summary of the method: as §1

NCI-H1755 = test system: NCI-H1755
Summary of the method: as §1

HCC-44 = test system: HCC-44
Summary of the method: as §1

NCI-H1703 = test system: NCI-H1703
Summary of the method: as §1

LCLC-103H = test system: LCLC-103H
Summary of the method: as §1

HCC-15 = test system: HCC-15
Summary of the method: as §1

Structure (SMILES): O=c1cc(N2CCOCC2)oc2c(-c3cccc4c3sc3ccccc34)cccc12 + NC(=O)Nc1cc(-c2cccc(F)c2)sc1C(=O)N[C@H]1CCCNC1 [AZD7762] (partner 0.2 µM)
- relative viability (EKVX; first compound 0.01 µM): 0.654
- relative viability (EKVX; first compound 0.03162 µM): 0.757
- relative viability (EKVX; first compound 0.1 µM): 0.445
- relative viability (EKVX; first compound 0.3162 µM): 0.878
- relative viability (EKVX; first compound 1 µM): 0.695
- relative viability (NCI-H1648; first compound 0.03162 µM): 0.889
- relative viability (NCI-H1648; first compound 0.1 µM): 0.714
- relative viability (NCI-H1648; first compound 0.3162 µM): 0.609
- relative viability (NCI-H1648; first compound 1 µM): 0.746
- relative viability (NCI-H1395; first compound 0.03162 µM): 0.403
- relative viability (NCI-H1395; first compound 0.1 µM): 0.357
- relative viability (NCI-H1395; first compound 0.3162 µM): 0.428
- relative viability (NCI-H1395; first compound 1 µM): 0.372
- relative viability (NCI-H1755; first compound 0.01 µM): 0.473
- relative viability (NCI-H1755; first compound 0.03162 µM): 0.417
- relative viability (NCI-H1755; first compound 0.1 µM): 0.427
- relative viability (NCI-H1755; first compound 0.3162 µM): 0.434
- relative viability (NCI-H1755; first compound 1 µM): 0.487
- relative viability (HCC-44; first compound 0.01 µM): 1.03
- relative viability (HCC-44; first compound 0.03162 µM): 1.08
- relative viability (HCC-44; first compound 0.1 µM): 0.973
- relative viability (HCC-44; first compound 0.3162 µM): 1.01
- relative viability (HCC-44; first compound 1 µM): 0.966
- relative viability (NCI-H1703; first compound 0.01 µM): 0.143
- relative viability (NCI-H1703; first compound 0.03162 µM): 0.137
- relative viability (NCI-H1703; first compound 0.3162 µM): 0.146
- relative viability (NCI-H1703; first compound 1 µM): 0.131
- relative viability (LCLC-103H; first compound 0.01 µM): 0.799
- relative viability (LCLC-103H; first compound 0.03162 µM): 0.777
- relative viability (LCLC-103H; first compound 0.1 µM): 0.804
- relative viability (LCLC-103H; first compound 0.3162 µM): 0.815
- relative viability (LCLC-103H; first compound 1 µM): 0.688
- relative viability (HCC-15; first compound 0.01 µM): 1.23
- relative viability (HCC-15; first compound 0.03162 µM): 1.46
- relative viability (HCC-15; first compound 0.1 µM): 1.3
- relative viability (HCC-15; first compound 0.3162 µM): 1.26
- relative viability (HCC-15; first compound 1 µM): 1.54

Structure (SMILES): CCN(CC)CCCCNc1ncc2cc(-c3cc(OC)cc(OC)c3)c(NC(=O)NC(C)(C)C)nc2n1 + NC(=O)Nc1cc(-c2cccc(F)c2)sc1C(=O)N[C@H]1CCCNC1 [AZD7762] (partner 0.2 µM)
- relative viability (EKVX; first compound 0.03162 µM): 0.585
- relative viability (EKVX; first compound 0.1 µM): 0.643
- relative viability (EKVX; first compound 0.3162 µM): 0.723
- relative viability (EKVX; first compound 1 µM): 0.709
- relative viability (NCI-H1648; first compound 0.01 µM): 0.69
- relative viability (NCI-H1648; first compound 0.03162 µM): 0.688
- relative viability (NCI-H1648; first compound 0.1 µM): 0.757
- relative viability (NCI-H1648; first compound 0.3162 µM): 0.583
- relative viability (NCI-H1648; first compound 1 µM): 0.445
- relative viability (NCI-H1395; first compound 0.01 µM): 0.402
- relative viability (NCI-H1395; first compound 0.03162 µM): 0.338
- relative viability (NCI-H1395; first compound 0.1 µM): 0.422
- relative viability (NCI-H1395; first compound 0.3162 µM): 0.392
- relative viability (NCI-H1395; first compound 1 µM): 0.309
- relative viability (NCI-H1755; first compound 0.01 µM): 0.429
- relative viability (NCI-H1755; first compound 0.03162 µM): 0.546
- relative viability (NCI-H1755; first compound 0.1 µM): 0.525
- relative viability (NCI-H1755; first compound 0.3162 µM): 0.421
- relative viability (NCI-H1755; first compound 1 µM): 0.365
- relative viability (HCC-44; first compound 0.01 µM): 1
- relative viability (HCC-44; first compound 0.03162 µM): 1.02
- relative viability (HCC-44; first compound 0.1 µM): 1.02
- relative viability (HCC-44; first compound 0.3162 µM): 1.02
- relative viability (HCC-44; first compound 1 µM): 1.12
- relative viability (NCI-H1703; first compound 0.03162 µM): 0.0943
- relative viability (NCI-H1703; first compound 0.1 µM): 0.12
- relative viability (NCI-H1703; first compound 0.3162 µM): 0.143
- relative viability (NCI-H1703; first compound 1 µM): 0.112
- relative viability (LCLC-103H; first compound 0.01 µM): 0.926
- relative viability (LCLC-103H; first compound 0.03162 µM): 0.843
- relative viability (LCLC-103H; first compound 0.1 µM): 0.824
- relative viability (LCLC-103H; first compound 0.3162 µM): 0.83
- relative viability (LCLC-103H; first compound 1 µM): 0.705
- relative viability (HCC-15; first compound 0.01 µM): 1.22
- relative viability (HCC-15; first compound 0.03162 µM): 1.17
- relative viability (HCC-15; first compound 0.1 µM): 1.22
- relative viability (HCC-15; first compound 0.3162 µM): 1.37
- relative viability (HCC-15; first compound 1 µM): 1.12

Structure (SMILES): O=c1cc(-c2cccc3c2Sc2ccccc2S3)oc(N2CCOCC2)c1 + NC(=O)Nc1cc(-c2cccc(F)c2)sc1C(=O)N[C@H]1CCCNC1 [AZD7762] (partner 0.2 µM)
- relative viability (EKVX; first compound 0.08 µM): 0.67
- relative viability (EKVX; first compound 0.253 µM): 0.709
- relative viability (EKVX; first compound 0.8 µM): 0.74
- relative viability (EKVX; first compound 2.53 µM): 0.669
- relative viability (EKVX; first compound 8 µM): 0.717
- relative viability (NCI-H1648; first compound 0.253 µM): 0.694
- relative viability (NCI-H1648; first compound 0.8 µM): 0.734
- relative viability (NCI-H1648; first compound 8 µM): 0.69
- relative viability (NCI-H1395; first compound 0.08 µM): 0.384
- relative viability (NCI-H1395; first compound 0.253 µM): 0.395
- relative viability (NCI-H1395; first compound 0.8 µM): 0.378
- relative viability (NCI-H1395; first compound 2.53 µM): 0.373
- relative viability (NCI-H1395; first compound 8 µM): 0.418
- relative viability (NCI-H1755; first compound 0.08 µM): 0.535
- relative viability (NCI-H1755; first compound 0.253 µM): 0.453
- relative viability (NCI-H1755; first compound 0.8 µM): 0.439
- relative viability (NCI-H1755; first compound 2.53 µM): 0.566
- relative viability (NCI-H1755; first compound 8 µM): 0.418
- relative viability (HCC-44; first compound 0.08 µM): 1.06
- relative viability (HCC-44; first compound 0.253 µM): 1.04
- relative viability (HCC-44; first compound 0.8 µM): 0.937
- relative viability (HCC-44; first compound 2.53 µM): 0.991
- relative viability (HCC-44; first compound 8 µM): 0.986
- relative viability (NCI-H1703; first compound 0.253 µM): 0.13
- relative viability (NCI-H1703; first compound 2.53 µM): 0.098
- relative viability (NCI-H1703; first compound 8 µM): 0.116
- relative viability (LCLC-103H; first compound 0.08 µM): 0.717
- relative viability (LCLC-103H; first compound 0.253 µM): 0.825
- relative viability (LCLC-103H; first compound 0.8 µM): 0.866
- relative viability (LCLC-103H; first compound 2.53 µM): 0.784
- relative viability (LCLC-103H; first compound 8 µM): 0.822
- relative viability (HCC-15; first compound 0.08 µM): 1.22
- relative viability (HCC-15; first compound 0.253 µM): 1.51
- relative viability (HCC-15; first compound 0.8 µM): 1.18
- relative viability (HCC-15; first compound 2.53 µM): 1.18
- relative viability (HCC-15; first compound 8 µM): 1.28
